ChEMBL document CHEMBL1201862, “PubChem BioAssay data set” (2004)
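Protocol summary: plate cells (96-well), add compound at 5 concentrations, incubate 48 h, interpolate endpoints linearly. GI50 is the concentration that inhibits growth by half.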 Active and inactive are the calls of the source. Cut-off read from the data, not from the text of the source: active = GI50 up to about 1.1 µM and inactive = higher. Where a SMILES comes first, the peptide text is derived from it. The star is where a group is joined. Boc = CC(C)(C)OC(=O)*; OBn = c1ccc(CO*)cc1

Legend:
Experiment in all cases: NCI anticancer screen, dose series, 48 h
NCI-H226 = tested on: NCI-H226
HT-29 = tested on: HT-29
SK-MEL-2 = tested on: SK-MEL-2
IGROV-1 = tested on: IGROV-1
ACHN = tested on: ACHN
COLO 205 = tested on: COLO 205
SK-OV-3 = tested on: SK-OV-3
SNB-19 = tested on: SNB-19
K562 = tested on: K562
MOLT-4 = tested on: MOLT-4
786-0 = tested on: 786-0
RPMI-8226 = tested on: RPMI-8226
HOP-62 = tested on: HOP-62
OVCAR-8 = tested on: OVCAR-8
TK-10 = tested on: TK-10
UACC-62 = tested on: UACC-62
SW-620 = tested on: SW-620
T47D = tested on: T47D
Hs-578T = tested on: Hs-578T

SMILES	GI50 (NCI-H226)	GI50 (HT-29)	GI50 (SK-MEL-2)	GI50 (IGROV-1)	GI50 (ACHN)	GI50 (COLO 205)	GI50 (SK-OV-3)	GI50 (SNB-19)	GI50 (K562)	GI50 (MOLT-4)	GI50 (786-0)	GI50 (RPMI-8226)	GI50 (HOP-62)	GI50 (OVCAR-8)	GI50 (TK-10)	GI50 (UACC-62)	GI50 (SW-620)	GI50 (T47D)	GI50 (Hs-578T)
Cc1ccc2c(c1)c(=O)c1c(NCCN(C)C)ccc3nnn2c31	3.02 µM (inactive)	1.47 µM (inactive)	8.04 µM (inactive)	4.33 µM (inactive)	3.06 µM (inactive)	1.9 µM (inactive)	3.56 µM (inactive)	6.34 µM (inactive)	2.91 µM (inactive)	0.605 µM (active)	3.35 µM (inactive)	2.36 µM (inactive)	3.59 µM (inactive)	2.98 µM (inactive)	3.95 µM (inactive)	6.44 µM (inactive)	1.57 µM (inactive)		
CC(C(N)=O)N(C)C(=O)c1cnc2ccccc2c1 (centres undefined)	> 100 µM (inactive)	> 100 µM (inactive)	> 100 µM (inactive)	> 100 µM (inactive)	> 100 µM (inactive)	> 100 µM (inactive)		> 100 µM (inactive)	17 µM (inactive)	> 100 µM (inactive)	> 100 µM (inactive)	> 100 µM (inactive)		> 100 µM (inactive)	> 100 µM (inactive)	> 100 µM (inactive)	> 100 µM (inactive)	> 100 µM (inactive)	
CC(C)CC(NC(=O)C(C)(CI)Cc1ccccc1)C(=O)Nc1ccccc1 (centres undefined)	> 100 µM (inactive)		> 100 µM (inactive)	> 100 µM (inactive)	> 100 µM (inactive)	> 100 µM (inactive)	> 100 µM (inactive)	> 100 µM (inactive)	> 100 µM (inactive)	56.1 µM (inactive)	> 100 µM (inactive)	> 100 µM (inactive)		> 100 µM (inactive)	> 100 µM (inactive)	> 100 µM (inactive)	> 100 µM (inactive)		
CC1(F)C=CC(=O)C=C1	86.9 µM (inactive)	46.5 µM (inactive)	> 100 µM (inactive)		59.6 µM (inactive)	> 100 µM (inactive)	> 100 µM (inactive)	> 100 µM (inactive)	44 µM (inactive)	26.4 µM (inactive)	17 µM (inactive)	29.4 µM (inactive)	> 100 µM (inactive)	19.6 µM (inactive)	38.9 µM (inactive)	44.9 µM (inactive)	22.2 µM (inactive)		> 100 µM (inactive)
CC1(C)C2CCC(N)(C2)C1O (centres undefined)	> 100 µM (inactive)		> 100 µM (inactive)	> 100 µM (inactive)	> 100 µM (inactive)	> 100 µM (inactive)	> 100 µM (inactive)	> 100 µM (inactive)	> 100 µM (inactive)	> 100 µM (inactive)	> 100 µM (inactive)	> 100 µM (inactive)	> 100 µM (inactive)	> 100 µM (inactive)	> 100 µM (inactive)	> 100 µM (inactive)	> 100 µM (inactive)	> 100 µM (inactive)	
O=[N+]([O-])/C(C(Cl)=C(Cl)Cl)=C1\NCCS1	> 100 µM (inactive)	47.8 µM (inactive)		62.4 µM (inactive)	61 µM (inactive)	40.1 µM (inactive)	> 100 µM (inactive)	> 100 µM (inactive)	18.8 µM (inactive)	21.9 µM (inactive)	36.1 µM (inactive)	19 µM (inactive)	> 100 µM (inactive)	47.2 µM (inactive)	> 100 µM (inactive)	39.7 µM (inactive)	56 µM (inactive)		27.4 µM (inactive)
OC1c2[nH]c3ccccc3c2CCN2CCCCC12 (centres undefined)	> 100 µM (inactive)	> 100 µM (inactive)	> 100 µM (inactive)	> 100 µM (inactive)	> 100 µM (inactive)	> 100 µM (inactive)	> 100 µM (inactive)	> 100 µM (inactive)	> 100 µM (inactive)	> 100 µM (inactive)	> 100 µM (inactive)	> 100 µM (inactive)	> 100 µM (inactive)	> 100 µM (inactive)	> 100 µM (inactive)	> 100 µM (inactive)	> 100 µM (inactive)	> 100 µM (inactive)	
COc1ccc2nc(-c3ccc(N)cc3)sc2c1	34.2 µM (inactive)	66.5 µM (inactive)	> 100 µM (inactive)	70.5 µM (inactive)	51.6 µM (inactive)	> 100 µM (inactive)	> 100 µM (inactive)	18.5 µM (inactive)	> 100 µM (inactive)	13.6 µM (inactive)	43.9 µM (inactive)		42.2 µM (inactive)	52.5 µM (inactive)	> 100 µM (inactive)	> 100 µM (inactive)	> 100 µM (inactive)		34.6 µM (inactive)
CC(C)CC(=O)NC(C(=O)NC(C(=O)NC(CC(C)C)C(O)CC(=O)NC(C)C(=O)NC(CC(C)C)C(O)CC(=O)O)C(C)C)C(C)C (centres undefined)	0.436 µM (active)	> 100 µM (inactive)	> 100 µM (inactive)	> 100 µM (inactive)	> 100 µM (inactive)	> 100 µM (inactive)	> 100 µM (inactive)	> 100 µM (inactive)	> 100 µM (inactive)	> 100 µM (inactive)	> 100 µM (inactive)	> 100 µM (inactive)	> 100 µM (inactive)	> 100 µM (inactive)	> 100 µM (inactive)	> 100 µM (inactive)	> 100 µM (inactive)		
O=C(/C=C1/Nc2ccc([N+](=O)[O-])cc2N/C1=C/C(=O)c1ccccc1)c1ccccc1	23.4 µM (inactive)	71.1 µM (inactive)	0.385 µM (active)	25.3 µM (inactive)	39.8 µM (inactive)	53.6 µM (inactive)	23 µM (inactive)	21.6 µM (inactive)	32.8 µM (inactive)	22.5 µM (inactive)	18.3 µM (inactive)		12.1 µM (inactive)	16.8 µM (inactive)	24.9 µM (inactive)	12.6 µM (inactive)		18.3 µM (inactive)	
CC(C)CC(NC(=O)OC(C)(C)C)C(=O)N1CCCC1C(=O)OCc1ccccc1 (stereo not drawn) (Boc-Leu-Pro-OBn; configuration not given here)	> 100 µM (inactive)	41.4 µM (inactive)	> 100 µM (inactive)	> 100 µM (inactive)	> 100 µM (inactive)	> 100 µM (inactive)	> 100 µM (inactive)	> 100 µM (inactive)	35.2 µM (inactive)		> 100 µM (inactive)			> 100 µM (inactive)	> 100 µM (inactive)	> 100 µM (inactive)	> 100 µM (inactive)	> 100 µM (inactive)	
Cc1ccc(C(=O)N/N=C(\N=N\c2ccc(C(=O)O)cc2)c2ccc(N(CCC#N)CCC#N)cc2C)cc1	> 100 µM (inactive)	> 100 µM (inactive)	> 100 µM (inactive)		> 100 µM (inactive)	> 100 µM (inactive)	80.7 µM (inactive)	> 100 µM (inactive)	> 100 µM (inactive)	> 100 µM (inactive)	> 100 µM (inactive)	> 100 µM (inactive)	> 100 µM (inactive)	> 100 µM (inactive)	> 100 µM (inactive)		> 100 µM (inactive)	70.5 µM (inactive)	
O=C1Nc2ccccc2[C@]12C[C@H]2c1ccccn1	62.8 µM (inactive)		> 100 µM (inactive)	> 100 µM (inactive)	> 100 µM (inactive)	> 100 µM (inactive)	> 100 µM (inactive)	> 100 µM (inactive)	> 100 µM (inactive)	> 100 µM (inactive)	> 100 µM (inactive)	> 100 µM (inactive)	> 100 µM (inactive)		> 100 µM (inactive)	> 100 µM (inactive)	> 100 µM (inactive)	> 100 µM (inactive)	
C1COCCN1.CN(C)c1ccc(-c2c(C#N)c(N)nc(S)c2C#N)cc1	22.6 µM (inactive)	> 100 µM (inactive)	34.4 µM (inactive)	40.1 µM (inactive)	> 100 µM (inactive)	> 100 µM (inactive)	> 100 µM (inactive)	39.9 µM (inactive)	> 100 µM (inactive)		> 100 µM (inactive)		87.3 µM (inactive)	> 100 µM (inactive)	> 100 µM (inactive)	35 µM (inactive)	63 µM (inactive)		4.57 µM (inactive)
CC1=CC[C@@H](C(C)(C)O)C[C@@H]1O	> 5000 µM (inactive)	> 5000 µM (inactive)	> 5000 µM (inactive)	> 5000 µM (inactive)	> 5000 µM (inactive)	> 5000 µM (inactive)	> 5000 µM (inactive)	> 5000 µM (inactive)	> 5000 µM (inactive)	> 5000 µM (inactive)	> 5000 µM (inactive)		> 5000 µM (inactive)	> 5000 µM (inactive)	> 5000 µM (inactive)	> 5000 µM (inactive)	> 5000 µM (inactive)		
c1c[nH]c(-c2cccc3nsnc23)c1	> 100 µM (inactive)	53.3 µM (inactive)	> 100 µM (inactive)	22.8 µM (inactive)	71.9 µM (inactive)	13.5 µM (inactive)	> 100 µM (inactive)	> 100 µM (inactive)	> 100 µM (inactive)	40.7 µM (inactive)	> 100 µM (inactive)	57.7 µM (inactive)	30.7 µM (inactive)	78 µM (inactive)	19.3 µM (inactive)	71.9 µM (inactive)	> 100 µM (inactive)	3.78 µM (inactive)	
